Patent US12036201B2, “Combination of a ubiquitin-conjugating enzyme complex inhibitor and antihypertensive and/or hypoglycemic drugs in diabetic kidney disease” (UNIVERSITÀ DEGLI STUDI DI BARI ALDO MORO, priority 2018, dated 2024)
“Also recorded” adds a separate entry of the source.

Experiments:
[1] = tested on: α-sma expression in HK2 cells; test: Immunofluorescence/confocal microscopy of α-sma in HK2 cells under high glucose; type: cell-based, human; details: NSC697923 1 μM
Experimental: (§1) HK2 cells, a line of Renal Proximal Tubule Epithelial Cells (PTEC) obtained from a human control kidney, were purchased from the American Type Culture Collection (ATCC, Rockville, MD). Cells were cultured in DMEM growth medium low glucose (5.5 mM) with the addition of 10% fetal bovine serum (FBS), 1% Penicillin and Streptomycin and 1% L-Glutamine (Sigma-Aldrich, Munich, Germany). Prior to each passage, cells reaching confluence were rinsed with phosphate-buffered saline (PBS), trypsinized with Trypsin 0.05% and Ethylenediaminetetraacetic acid (EDTA) 0.02% in PBS and seeded in complete growth medium with or without the addition of D-Glucose 24.5 mM (final concentration in hyperglycemia HG=30 mM) or L-Glucose 24.5 mM as osmolarity control, for each predetermined time point. Cells were then incubated at 37° C. in 5% CO2.
(§2) The cellular distribution of the proteins showing lysine63-linked ubiquitylation and the expression of the mesenchymal marker α-sma was evaluated in HK2 cells through indirect immunofluorescence and confocal microscopy analysis following incubation with specific antibodies. For each condition, 150.000 cells were plated on sterile glass slides and then incubated with D- or L-Glucose 30 mM for the indicated time point. In some predetermined conditions, the specific inhibitor of Lysine63-linked ubiquitylation, NSC697923, was pre-incubated at a 1 μM final concentration, 1 h prior to the addition of glucose and/or the ACE-inhibitor Ramipril at a final concentration of 10 μM and/or the SGLT2 inhibitor Empaglifozin at a 500 nM final concentration. Following stimulation, HK2 were fixed 15 min in paraformaldehyde 4%, treated 5 min with Triton-X 100 0.1% in PBS, and incubated 1 h in blocking buffer (goat serum 4%+BSA 2%). Cells were then incubated 1 h with the specific antibodies against α-sma and lysine63 ubiquitin diluted in blocking buffer. The antigen-antibody complex was then identified using a secondary fluorescent antibody (specifically Alexa Fluor 555 goat anti-rabbit and Alexa Fluor 488 goat anti-mouse). Prior to the incubation with the secondary antibody, cells were rinsed three times in PBS. Cells nuclei were then stained using TO-PRO-3 diluted in PBS and slides were mounted. The negative control was obtained incubating cells in blocking without the addition of the primary antibody. The fluorescence signal was then acquired using the Leica TCS SP2 confocal microscope and images were saved at a 63× zoom using the microscope software. Signal was finally quantified measuring the area % of fluorescent signal compared to the background.

[2] = tested on: Lysine 63 ubiquitinated proteins in HK2 cells; test: Immunofluorescence/confocal microscopy of lysine 63 ubiquitinated proteins in HK2 cells under high glucose; type: cell-based, human; details: high glucose 30 mM, NSC697923 1 μM
Experimental: as §1, §2

[3] = tested on: immortalized human renal tubular cells HK2; details: in vitro cellular model of HK2 cells; Pontrelli et al. FASEB J 2017; cited from earlier work
[4] = tested on: Lysine 63 ubiquitinated proteins (Lys63-Ub); test: Immunohistochemistry of lysine 63 ubiquitinated proteins on renal tissue; type: in vivo, mice (DBA/2J); details: diabetic mice (STZ)
Experimental: Tissue samples were obtained from kidney of DBA/2J mice. Following sacrifice, tissues were fixed in 4% formaldehyde. In order to evaluate the accumulation of proteins undergoing Lysisine63-linked ubiquitylation through immunohistochemistry, dewaxed and unmasked sections were incubated 10 min in H2O2 and 5 min in Triton 0.25% at ambient temperature. Sections were then blocked 10 min with Protein block (Dako, Glostrup, Denmark) and then incubated 1 h with the specific antibody against and lysine63-linked ubiquitylation. […] Sections were stained with hematoxylin and slides were mounted with glycerol. The negative control sample lacks the primary antibody incubation step. The signal is then quantified using the Positive Pixel Count v9_v10.0.0.1805 algorithm (Aperio Technologies) that measures the number of […].
The animal model employed is the murine model DBA/2J. […]
(§3) Lysine 63 ubiquitinated proteins accumulation has been evaluated by immunohistochemistry on renal tissues from the mice model of diabetic nephropathy (DBA/2J mice+streptozotocin-STZ); the degree of fibrosis in these samples has been evaluated by Sirius Red Fast Green staining.

[5] = tested on: α-sma expression in HK2 cells; test: Western blotting of α-sma in HK2 cells under high glucose; type: cell-based, human; details: Example 3, FIG. 3, high glucose 30 mM, NSC697923 1 μM, Ramipril 10 μM
Experimental: as §1
Cells were plated in six-well plates and incubated to reach confluence. Cells were then exposed to either D- or L-Glucose at a concentration of 30 mM for the indicated time point. […]
By western blotting on cultured immortalized renal tubular cells (HK2) we evaluated the protein expression levels of α-sma, a marker of epithelial-to-mesenchymal transition.

diabetic mice (STZ) [6] = test: Sirius Red/Fast Green staining of tubular-interstitial fibrosis in kidney; type: in vivo, mice (DBA/2J)
Experimental: Tissue samples were obtained from kidneys of DBA/2J mice following sacrifice. Tissue was fixed in 4% formaldehyde. Following dewaxing and hydration, sections were incubated with Bouin's solution overnight at ambient temperature. Sections were then rinsed using running tap water to remove all the fixative residues and incubated 1 h at ambient temperature with the Sirius Red/Fast Green dye combination 1:1.
The animal model employed is the murine model DBA/2J. 8-weeks-old mice received daily intraperitoneal injections for five consecutive days of either sodium citrate (females, control group) or streptozotocin (STZ, 45 mg/kg, pH4.5, dissolved in sodium citrate) for the study group (males). Only those animals showing a blood glucose level above 250 mg/dl were included in this study. Five weeks following the last STZ injection, animals were treated with NSC697923 dissolved in PBS (3 mg/kg, 3 times a week for 6 weeks) and/or RAMIPRIL (2 mg/kg, 3 times a week for 6 weeks) dissolved in DMSO 2% either alone or in combination [NSC697923 (3 mg/kg)+RAMIPRIL (2 mg/kg) 3 times a week for 6 weeks]. […]
as §3

[7] = Clinical data of DBA/2J mice (controls and STZ diabetic): body weight, kidney weight, blood glucose, urinary volume; type: in vivo, mice (DBA/2J); set-up: Blood glucose at sacrifice: unit: mg/dl; details: for Kidney Weight: in g (unit assumed)
Experimental: The animal model employed is the murine model DBA/2J. 8-weeks-old mice received daily intraperitoneal injections for five consecutive days of either sodium citrate (females, control group) or streptozotocin (STZ, 45 mg/kg, pH4.5, dissolved in sodium citrate) for the study group (males). Only those animals showing a blood glucose level above 250 mg/dl were included in this study. Five weeks following the last STZ injection, animals were treated with NSC697923 dissolved in PBS (3 mg/kg, 3 times a week for 6 weeks) and/or […] (2 mg/kg, 3 times a week for 6 weeks) dissolved in DMSO 2% either alone or in combination [NSC697923 (3 mg/kg)+[…] (2 mg/kg) 3 times a week for 6 weeks]. Serum and 24 h urine samples were collected at the end of the treatment. Kidney samples were collected at sacrifice and immediately fixed in formalin and embedded in paraffin.

diabetic mice (STZ) [8] = test: Urinary albumin analysis (Mouse Albumin ELISA Kit) in 24 h urine; type: in vivo, mice (DBA/2J); details: for ug urine albumin 24 h: 24 h urine
Experimental: The animal model employed is the murine model DBA/2J. 8-weeks-old mice received daily intraperitoneal injections for five consecutive days of either sodium citrate (females, control group) or streptozotocin (STZ, 45 mg/kg, pH4.5, dissolved in sodium citrate) for the study group (males). Only those animals showing a blood glucose level above 250 mg/dl were included in this study. Five weeks following the last STZ injection, animals were treated with NSC697923 dissolved in PBS (3 mg/kg, 3 times a week for 6 weeks) and/or RAMIPRIL (2 mg/kg, 3 times a week for 6 weeks) dissolved in DMSO 2% either alone or in combination [NSC697923 (3 mg/kg)+RAMIPRIL (2 mg/kg) 3 times a week for 6 weeks]. Serum and 24 h urine samples were collected at the end of the treatment. Kidney samples were collected at sacrifice and immediately fixed in formalin and embedded in paraffin.
Urinary albumin concentration was measured in the urine of these animals using the commercially available Mouse Albumin ELISA Kit (Abcam). The urinary albumin values were normalized to the total urinary protein content compared to the total volume of urines produced during the 24 h before sacrifice.

[9] = Example 8, FIG. 8a, high glucose 30 mM, Empaglifozin 500 nM
[10] = Example 8, FIG. 8b, Empaglifozin 500 nM
[11] = Example 6, FIG. 6, compared to untreated diabetic mice or mice treated with ACE inhibitors alone
[12] = Table 1, diabetic (STZ) DBA/2J mice, NSC697923 3 mg/kg 3 times a week for 6 weeks
[13] = Table 1, non-diabetic DBA/2J mice, NSC697923 3 mg/kg 3 times a week for 6 weeks
[14] = Table 2, diabetic (STZ) DBA/2J mice, NSC697923 3 mg/kg and/or Ramipril 2 mg/kg 3 times a week for 6 weeks
[15] = Example 4, FIG. 4b, Ramipril 10 μM
[16] = Table 2, non-diabetic DBA/2J mice, NSC697923 3 mg/kg and/or Ramipril 2 mg/kg 3 times a week for 6 weeks

OC[C@H]1O[C@@H](c2ccc(Cl)c(Cc3ccc(O[C@H]4CCOC4)cc3)c2)[C@H](O)[C@@H](O)[C@@H]1O [SGLT2 receptor inhibitors, Empaglifozin]
α-sma expression (confocal microscopy) [1, 9]: partially reduce
accumulation of lysine 63 ubiquitinated proteins (confocal microscopy) [2, 10]: do not reduce

Cc1ccc(S(=O)(=O)c2ccc([N+](=O)[O-])o2)cc1 [NSC697923, 2-(4-methylphenyl)sulfonyl-5-nitrofuran]
epithelial to mesenchymal transition [3]: blocks
accumulation of lysine 63 ubiquitinated proteins in kidney ([4]; Example 1, FIG. 1, NSC697923 3 mg/kg 3 times a week for 6 weeks, vs untreated STZ): significantly reduces
accumulation of lysine 63 ubiquitinated proteins in kidney [4, 11]: significant reduction
α-sma expression (confocal microscopy) [1, 9]: reduces both processes
α-sma expression (confocal microscopy) ([1]; Examples 4 and 5, FIGS. 4a and 5, high glucose 30 mM, Ramipril 10 μM): reduces both processes; also recorded: able to inhibit
α-sma expression (western blotting, normalized to actin) [5]: reduced
degree of tubular-interstitial fibrosis (Sirius Red Fast Green) (diabetic mice (STZ) [6]; Example 1, FIGS. 1 and 2, NSC697923 3 mg/kg 3 times a week for 6 weeks, vs untreated STZ, 3 mg/kg): significantly reduces; also recorded: capable of reducing
degree of fibrosis (Sirius Red Fast Green) (diabetic mice (STZ) [6]; [11]): significant reduction
Blood glucose at sacrifice [7, 12]: 540.5 ± 33.05
Urinary Volume (mL/24 h) [7, 12]: 25.83 ± 12.58 mL/24 h
Kidney Weight [7, 12]: 0.33 ± 0.079
Blood glucose at sacrifice [7, 13]: 118.8 ± 10.44
Urinary Volume (mL/24 h) [7, 13]: 0.33 ± 0.17 mL/24 h
Kidney Weight [7, 13]: 0.24 ± 0.018
Blood glucose at sacrifice [7, 14]: 594.28 ± 7.95
Urinary Volume (mL/24 h) [7, 14]: 24.85 ± 7.78 mL/24 h
Kidney Weight [7, 14]: 0.38 ± 0.05
effect on urinary albuminuria (diabetic mice (STZ) [8]; Example 2, first group of animals, treated diabetic mice (STZ+NSC697923) compared to untreated diabetic mice (STZ)): has no effect; also recorded: not able to reduce
ug urine albumin 24 h (diabetic mice (STZ) [8]; [12]): 724.25 ± 690.89 µg
ug urine albumin 24 h (diabetic mice (STZ) [8]; [14]): 439.29 ± 211.2 µg
accumulation of lysine 63 ubiquitinated proteins (confocal microscopy) [2, 15]: reduces both processes
accumulation of lysine 63 ubiquitinated proteins (confocal microscopy) [2, 10]: reduces both processes

CCOC(=O)[C@H](CCc1ccccc1)N[C@@H](C)C(=O)N1[C@H](C(=O)O)C[C@@H]2CCC[C@@H]21 [RAMIPRIL, Ramipril]
α-sma expression (confocal microscopy) ([1]; Examples 4 and 5, FIGS. 4a and 5, high glucose 30 mM, Ramipril 10 μM, listed as ACE inhibitors): do not block; also recorded: do not reduce
α-sma expression (western blotting, normalized to actin) [5]: have no effect
Blood glucose at sacrifice [7, 14]: 555.71 ± 71.48
Urinary Volume (mL/24 h) [7, 14]: 29.64 ± 9.51 mL/24 h
Kidney Weight [7, 14]: 0.37 ± 0.054
Blood glucose at sacrifice [7, 16]: 112 ± 9.14
Kidney Weight [7, 16]: 0.242 ± 0.027
ug urine albumin 24 h (diabetic mice (STZ) [8]; [14]): 388.79 ± 79.78 µg
ug urine albumin 24 h (diabetic mice (STZ) [8]; [16]): 128.54 ± 55.94 µg
accumulation of lysine 63 ubiquitinated proteins (confocal microscopy) [2, 15]: do not reduce
